From ChEMBL document CHEMBL3120064, “Synthesis and biological evaluation of baicalein derivatives as potent antitumor agents” (Bioorg Med Chem Lett, 2014)
Activity calls are given as the source filed them. The rule behind the calls is not given here.

How the values were obtained:
[1] = Antiproliferative activity against human BCG823 cells after 48 hrs by MTT assay; type: functional, cell-based; settings: BCG823, 48 h
[2] = system: HepG2; assay: Antiproliferative activity against human HepG2 cells after 48 hrs by MTT assay; type: functional, cell-based; settings: HepG2, 48 h
[3] = system: A549; assay: Antiproliferative activity against human A549 cells after 48 hrs by MTT assay; type: functional, cell-based; settings: A549, 48 h
[4] = system: HepG2; assay: Induction of apoptosis in human HepG2 cells assessed as necrotic cells at 3 uM after 72 hrs by annexin V and propidium iodide staining-based flow cytometric analysis (reference value: 2.7 +/- 0.1%); type: functional
[5] = system: HepG2; assay: Induction of apoptosis in human HepG2 cells assessed as karyopyknosis at 0.75 to 3 uM after 72 hrs by DAPI staining-based fluorescent microscopic analysis; type: functional, cell-based
[6] = system: HepG2; assay: Induction of apoptosis in human HepG2 cells assessed as early apoptotic cells at 0.75 uM after 72 hrs by annexin V and propidium iodide staining-based flow cytometric analysis (reference value: 1.4 +/- 0.1%); type: functional
[7] = system: HepG2; assay: Induction of apoptosis in human HepG2 cells assessed as viable cells at 0.75 uM after 72 hrs by annexin V and propidium iodide staining-based flow cytometric analysis (reference value: 94.5 +/- 0.6%); type: functional; settings: HepG2, 72 h, read-out: Activity
[8] = system: HepG2; assay: Induction of apoptosis in human HepG2 cells assessed as necrotic cells at 0.75 uM after 72 hrs by annexin V and propidium iodide staining-based flow cytometric analysis (reference value: 2.7 +/- 0.1%); type: functional
[9] = system: HepG2; assay: Induction of apoptosis in human HepG2 cells assessed as late apoptotic cells at 1.5 uM after 72 hrs by annexin V and propidium iodide staining-based flow cytometric analysis (reference value: 1.4 %); type: functional
[10] = system: HepG2; assay: Induction of apoptosis in human HepG2 cells assessed as chromatin condensation at 0.75 to 3 uM after 72 hrs by DAPI staining-based fluorescent microscopic analysis; type: functional, cell-based
[11] = system: HepG2; assay: Induction of apoptosis in human HepG2 cells assessed as viable cells at 3 uM after 72 hrs by annexin V and propidium iodide staining-based flow cytometric analysis (reference value: 94.5 +/- 0.6%); type: functional; settings: HepG2, 72 h, read-out: Activity
[12] = system: HepG2; assay: Induction of apoptosis in human HepG2 cells assessed as early apoptotic cells at 3 uM after 72 hrs by annexin V and propidium iodide staining-based flow cytometric analysis (reference value: 1.4 +/- 0.1%); type: functional
[13] = system: HepG2; assay: Induction of apoptosis in human HepG2 cells assessed as necrotic cells at 1.5 uM after 72 hrs by annexin V and propidium iodide staining-based flow cytometric analysis (reference value: 2.7 +/- 0.1%); type: functional
[14] = system: HepG2; assay: Induction of apoptosis in human HepG2 cells assessed as late apoptotic cells at 3 uM after 72 hrs by annexin V and propidium iodide staining-based flow cytometric analysis (reference value: 1.4 %); type: functional
[15] = system: HepG2; assay: Induction of apoptosis in human HepG2 cells assessed as early apoptotic cells at 1.5 uM after 72 hrs by annexin V and propidium iodide staining-based flow cytometric analysis (reference value: 1.4 +/- 0.1%); type: functional
[16] = system: HepG2; assay: Induction of apoptosis in human HepG2 cells assessed as late apoptotic cells at 0.75 uM after 72 hrs by annexin V and propidium iodide staining-based flow cytometric analysis (reference value: 1.4 %); type: functional
[17] = system: HepG2; assay: Induction of apoptosis in human HepG2 cells assessed as viable cells at 1.5 uM after 72 hrs by annexin V and propidium iodide staining-based flow cytometric analysis (reference value: 94.5 +/- 0.6%); type: functional; settings: HepG2, 72 h, read-out: Activity

| SMILES | IC50 [2] | IC50 [3] | IC50 [1] | other results |
| --- | --- | --- | --- | --- |
| O=c1cc(-c2ccccc2)oc2cc(OCc3ccccc3)c(OCCCCN3CCOCC3)c(O)c12 | > 100 µM | > 100 µM | 83.6 µM |  |
| O=c1cc(-c2ccccc2)oc2cc(O)c(OCCCN3CCOCC3)c(O)c12 | 86.2 µM | > 100 µM | 88.3 µM |  |
| O=c1cc(-c2ccccc2)oc2cc(O)c(OCCCCN3CCCCC3)c(O)c12 | > 100 µM | 75 µM | 52.7 µM |  |
| COc1cc2oc(-c3ccccc3)cc(=O)c2c(O)c1OCCCCN1CCOCC1 | 19.8 µM | 25 µM | 27.2 µM |  |
| CCN(CC)CCCCOc1c(OCc2ccccc2)cc2oc(-c3ccccc3)cc(=O)c2c1O | 2.2 µM | 1.8 µM | 4.2 µM |  |
| O=c1cc(-c2ccccc2)oc2cc(O)c(OCCCN3CCCCC3)c(O)c12 | 70.6 µM | > 100 µM | 60.9 µM |  |
| O=c1cc(-c2ccccc2)oc2cc(OCc3ccccc3)c(OCCCCN3CCCC3)c(O)c12 | 2 µM | 0.8 µM | 3.2 µM | Activity [4]: 8.3%; Activity [5]: Active; Activity [6]: 3.2%; viability at 0.75 µM [7]: 89.5%; Activity [8]: 5.2%; Activity [9]: 6.3%; Activity [10]: Active; viability at 3 µM [11]: 11.1%; Activity [12]: 30%; Activity [13]: 11.1%; Activity [14]: 50.6%; Activity [15]: 5.1%; Activity [16]: 2.2%; viability at 1.5 µM [17]: 77.5% |
| O=c1cc(-c2ccccc2)oc2cc(O)c(O)c(O)c12 [BAICALEIN] | 28.3 µM | 13 µM | 19.1 µM |  |
| O=c1cc(-c2ccccc2)oc2cc(O)c(OCCCCN3CCCC3)c(O)c12 | > 100 µM | 51 µM | 86.4 µM |  |
| CN(C)CCCOc1c(OCc2ccccc2)cc2oc(-c3ccccc3)cc(=O)c2c1O | 2.2 µM | 2.6 µM | 5.5 µM |  |
| COc1cc2oc(-c3ccccc3)cc(=O)c2c2c1OCCCO2 | 69 µM | 51.3 µM | > 100 µM |  |
| O=c1cc(-c2ccccc2)oc2cc(O)c(OCCCN3CCCC3)c(O)c12 | > 100 µM | > 100 µM | > 100 µM |  |
| CN1CCN(CCCOc2c(OCc3ccccc3)cc3oc(-c4ccccc4)cc(=O)c3c2O)CC1 | 2.4 µM | 1.3 µM | 4.1 µM |  |
| COc1cc2oc(-c3ccccc3)cc(=O)c2c(O)c1OCCCCN1CCCCC1 | 21 µM | 34 µM | 21.9 µM |  |

The next lines start with results.

| IC50 [2] | IC50 [3] | SMILES | IC50 [1] | other results |
| --- | --- | --- | --- | --- |
| 93.7 µM | > 100 µM | CN1CCN(CCCCOc2c(O)cc3oc(-c4ccccc4)cc(=O)c3c2O)CC1 | 82.9 µM |  |
| 2.2 µM | 3.1 µM | O=c1cc(-c2ccccc2)oc2cc(OCc3ccccc3)c(OCCCN3CCCCC3)c(O)c12 | 4.6 µM |  |
| 7.1 µM | 35 µM | CCN(CC)CCCCOc1c(OC)cc2oc(-c3ccccc3)cc(=O)c2c1O | 17.4 µM |  |
| 9.2 µM | 14 µM | COc1cc2oc(-c3ccccc3)cc(=O)c2c(O)c1OCCCN1CCOCC1 | 43.1 µM |  |
| 2.4 µM | 1.9 µM | O=c1cc(-c2ccccc2)oc2cc(OCc3ccccc3)c(OCCCCN3CCCCC3)c(O)c12 | 3 µM |  |
| 22.3 µM | 17 µM | COc1cc2oc(-c3ccccc3)cc(=O)c2c(O)c1OCCCN1CCCCC1 | 25.3 µM |  |
| 4.9 µM | 13 µM | COc1cc2oc(-c3ccccc3)cc(=O)c2c(O)c1OCCCCN1CCCC1 | 10.6 µM |  |
| 2.5 µM | 4.4 µM | CN1CCN(CCCCOc2c(OCc3ccccc3)cc3oc(-c4ccccc4)cc(=O)c3c2O)CC1 | 7.2 µM |  |
| 3.7 µM | 4.9 µM | CCN(CC)CCCOc1c(OC)cc2oc(-c3ccccc3)cc(=O)c2c1O | 5.7 µM |  |
| 36.7 µM | 32 µM | COc1cc2oc(-c3ccccc3)cc(=O)c2c(O)c1OCCCCN1CCN(C)CC1 | 53.5 µM |  |
| 15.1 µM | 18 µM | COc1cc2oc(-c3ccccc3)cc(=O)c2c(O)c1OCCCN1CCN(C)CC1 | 31.3 µM |  |
| > 100 µM | > 100 µM | COc1cc2oc(-c3ccccc3)cc(=O)c2c2c1OCCCCO2 | > 100 µM |  |
| 4.3 µM | 6 µM | COc1cc2oc(-c3ccccc3)cc(=O)c2c(O)c1OCCCN1CCCC1 | 6.5 µM |  |
| 75.8 µM | > 100 µM | O=c1cc(-c2ccccc2)oc2cc(OCc3ccccc3)c(OCCCN3CCOCC3)c(O)c12 | 51.4 µM |  |
| 4.2 µM | 1.4 µM | O=c1cc(-c2ccccc2)oc2cc(OCc3ccccc3)c(OCCCN3CCCC3)c(O)c12 | > 100 µM |  |
| 67.2 µM | > 100 µM | O=c1cc(-c2ccccc2)oc2cc(O)c(OCCCCN3CCOCC3)c(O)c12 | 58.7 µM |  |
